Test results: patent US20060223889A1 (priority 2003, published 2006)

Tests used:
physchem = settings: pH 7, water
[1] = Stability in aqueous solution; type: physicochemical

CS(=O)(=O)c1ccc([C@@H](O)[C@@H](CF)NC(=O)C(Cl)Cl)cc1 [Florfenicol, D-(threo)-1-p-methylsulfonyl phenyl-2-dichloroacetamido-3-fluoro-1-propanol]
solubility (physchem): ≤ 1300 µg/mL | hydrolysis when dissolved in water [1]: readily hydrolyses
